{"source": "paper PMC5955835", "about": "(ACS chemical neuroscience, 2018)", "key": {"[1]": {"test_system": "VC4 and 5 neurons of SC_APP vem-1/PGRMC1 null C. elegans", "details": "earlier work, SC_APP model; cited from earlier work"}, "[2]": {"test_system": "transgenic APP mouse model", "details": "listed as SAS-0132; cited from earlier work"}, "[3]": {"test_system": "VC4 and 5 neurons of C. elegans SC_APP model", "assay": "HCS microfluidic neurodegeneration assay in C. elegans SC_APP model", "assay_type": "in vivo", "details": "for effect on neurodegeneration of VC4 and 5 neurons in SC_APP model: D3 adult animals, liquid culture, doses 0.02, 0.2, 2 and 20 μM, vs vehicle-treated SC_APP (200 μM FUdR, 0.5% DMSO); for concentration of highest efficacy in protecting against neurodegeneration: SC_APP model, D3 animals, four doses 0.02-20 μM"}}, "note": "“Also recorded” adds a separate entry of the source. Counter-ions that a name gives are not always drawn."}
{"smiles": "CN1CCN(c2ccc3c(c2)[C@H]2C[C@@H]3CCN2C(=O)OCc2ccccc2)CC1", "note": "[Compound 1]", "values": [{"measurement": "PGRMC1 dependence of reduction of neurodegeneration", "setting": "[1]", "value": "reduced neurodegeneration through a pathway dependent upon PGRMC1"}, {"measurement": "cognitive performance in transgenic AD mice", "setting": "[2]", "value": "improvement in cognitive performance; also recorded: efficacious"}, {"measurement": "effect on neurodegeneration of VC4 and 5 neurons in SC_APP model", "setting": "[3]", "value": "reduce neurodegeneration relative to the vehicle treated SC_APP group"}]}
{"smiles": "OC(CNc1ccccc1)Cn1c2ccc(Br)cc2c2cc(Br)ccc21", "note": "(stereo not drawn) [Compound P7C3, P7C3]", "values": [{"measurement": "concentration of highest efficacy in protecting against neurodegeneration", "setting": "[3]", "value": 0.2, "unit": "µM"}]}
{"smiles": "COc1ccc(S(=O)(=O)Nc2cc(Cl)cc(Cl)c2OC)cc1N1CCNCC1", "note": "[SB399885, SB 399885 hydrochloride]", "values": [{"measurement": "effect on neurodegeneration of VC4 and 5 neurons in SC_APP model", "setting": "[3]", "value": "protected the cholinergic neurons of the SC_APP model"}, {"measurement": "concentration of highest efficacy in protecting against neurodegeneration", "setting": "[3]", "value": 20, "unit": "µM"}]}
{"smiles": "Fc1ccc(-n2cc(CCCCN3CCC4(CC3)OCc3ccccc34)c3ccccc32)cc1", "note": "[Siramesine]", "values": [{"measurement": "effect on neurodegeneration of VC4 and 5 neurons in SC_APP model", "setting": "[3]", "value": "increase neurodegeneration after a dosing threshold is exceeded despite an initial decrease at lower dosages"}]}
{"smiles": "C=C(c1ccc(C(=O)O)cc1)c1cc2c(cc1C)C(C)(C)CCC2(C)C", "note": "[bexarotene]", "values": [{"measurement": "effect on neurodegeneration of VC4 and 5 neurons in SC_APP model", "setting": "[3]", "value": "protected the cholinergic neurons of the SC_APP model"}, {"measurement": "concentration of highest efficacy in protecting against neurodegeneration", "setting": "[3]", "value": 20, "unit": "µM"}]}
